According to DBAASP:
Values after ≈ are worked out from the molar mass of the structure shown. Values joined by “and” are separate entries in the source; they are usually repeats but may differ in a detail not shown here. Identical values can stand only once. One block for each compound: values may come before it.

Legend:
Assay in all cases: ≥ marks a high value that may be exact or a test limit, other limits are often not marked, values filed in µg/mL are converted to µM
[1] = system: Staphylococcus aureus ATCC BAA-1556
[2] = system: Escherichia coli BL21AI
[3] = system: Micrococcus luteus ATCC 10240
[4] = system: Escherichia coli ATCC 25922
[5] = system: Staphylococcus aureus ATCC 25923
[6] = system: Pseudomonas aeruginosa ATCC 9027
[7] = system: Enterococcus faecalis PCM 2673
[8] = system: Candida albicans ATCC 10231
[9] = system: Klebsiella pneumoniae ATCC 27736
[10] = system: Pseudomonas aeruginosa ATCC BAA-427
[11] = system: Bacillus subtilis ATCC 6633
[12] = system: Escherichia coli
[13] = system: Pseudomonas aeruginosa ATCC 27853
[14] = system: Klebsiella pneumoniae ATCC 13883
[15] = system: Streptococcus pyogenes ATCC 19615
[16] = system: Bacillus subtilis
[17] = system: Salmonella enterica subsp. enterica serovar Typhimurium ATCC 14028
[18] = system: Enterococcus faecalis ATCC 29212
[19] = system: Escherichia coli BL21(DE3)
[20] = system: Trichosporon beigelii KCTC 7707
[21] = system: Saccharomyces cerevisiae KCTC 7296
[22] = system: Candida albicans TIMM 1768

SMILES: CC[C@H](C)[C@H](NC(=O)[C@@H]1CCCN1C(=O)[C@H](CCCN=C(N)N)NC(=O)[C@@H]1CCCN1C(=O)[C@H](Cc1cnc[nH]1)NC(=O)[C@@H]1CCCN1C(=O)[C@@H]1CCCN1C(=O)[C@H](CCCN=C(N)N)NC(=O)[C@@H]1CCCN1C(=O)[C@H](CCC(N)=O)NC(=O)[C@@H]1CCCN1C(=O)[C@@H](NC(=O)[C@H](Cc1ccc(O)cc1)NC(=O)[C@@H](NC(=O)[C@@H]1CCCN1C(=O)[C@H](CCCN=C(N)N)NC(=O)[C@H](CC(N)=O)NC(=O)[C@H](CC(N)=O)NC(=O)CN)C(C)C)[C@@H](C)CC)C(=O)N[C@@H](CCCN=C(N)N)C(=O)N[C@H](C(=O)O)C(C)C [GNNRPVYIPQPRPPHPRPIRV]
MIC [2]: 6.35 µM (≈ 15.6 µg/mL) | MIC [3]: 0.199 µM (≈ 0.49 µg/mL)

SMILES: CC[C@H](C)[C@H](NC(=O)[C@H](Cc1cnc[nH]1)NC(=O)[C@H](Cc1cnc[nH]1)NC(=O)[C@H](Cc1ccccc1)NC(=O)[C@@H](N)Cc1ccccc1)C(=O)N[C@@H](Cc1ccccc1)C(=O)N[C@@H](CCCN=C(N)N)C(=O)NCC(=O)N[C@H](C(=O)N[C@H](C(=O)N[C@@H](Cc1cnc[nH]1)C(=O)N[C@H](C(=O)NCC(=O)N[C@@H](CCCCN)C(=O)N[C@H](C(=O)N[C@H](C(=O)N[C@@H](Cc1cnc[nH]1)C(=O)N[C@@H](CCCN=C(N)N)C(=O)N[C@@H](CC(C)C)C(=O)N[C@H](C(=O)N[C@H](C(=O)NCC(N)=O)[C@@H](C)O)C(C)C)[C@@H](C)CC)[C@@H](C)O)C(C)C)C(C)C)C(C)C [FFHHIFRGVVHVGKTIHRLVTG]
MIC [9]: 6 µM (≈ 15.3 µg/mL) | MIC [10]: 12 µM (≈ 30.7 µg/mL) | MIC [11]: 8 µM (≈ 20.5 µg/mL)

SMILES: CC[C@H](C)[C@H](NC(=O)CNC(=O)[C@H](CCCN=C(N)N)NC(=O)[C@H](Cc1ccccc1)NC(=O)[C@H](C)NC(=O)[C@H](Cc1cnc[nH]1)NC(=O)[C@H](Cc1cnc[nH]1)NC(=O)[C@H](Cc1ccccc1)NC(=O)[C@@H](N)Cc1ccccc1)C(=O)N[C@H](C(=O)N[C@@H](Cc1cnc[nH]1)C(=O)N[C@H](C(=O)NCC(=O)N[C@@H](CCCCN)C(=O)N[C@H](C(=O)N[C@H](C(=O)N[C@@H](Cc1cnc[nH]1)C(=O)N[C@@H](CCCN=C(N)N)C(=O)N[C@@H](CC(C)C)C(=O)N[C@H](C(=O)N[C@H](C(=O)NCC(N)=O)[C@@H](C)O)C(C)C)[C@@H](C)CC)[C@@H](C)O)C(C)C)C(C)C [FFHHAFRGIVHVGKTIHRLVTG]
MIC [9]: 12 µM (≈ 30.3 µg/mL) | MIC [10]: 20 µM (≈ 50.6 µg/mL) | MIC [11]: 16 µM (≈ 40.5 µg/mL)

SMILES: CC[C@H](C)[C@H](NC(=O)[C@@H](NC(=O)[C@@H](N)CCCN=C(N)N)[C@@H](C)CC)C(=O)N[C@@H](CC(=O)O)C(=O)N[C@@H](CC(C)C)C(=O)N[C@@H](CC(C)C)C(=O)N[C@@H](Cc1c[nH]c2ccccc12)C(=O)N[C@@H](CCCN=C(N)N)C(=O)N[C@H](C(=O)N[C@@H](Cc1c[nH]c2ccccc12)C(=O)N[C@@H](CCCN=C(N)N)C(=O)N1CCC[C@H]1C(=O)N[C@@H](CCC(N)=O)C(=O)N[C@@H](CCCCN)C(=O)N1CCC[C@H]1C(=O)N[C@@H](CCCCN)C(=O)N[C@@H](Cc1ccccc1)C(=O)N[C@H](C(=O)N[C@H](C(=O)N[C@H](C(=O)N[C@@H](Cc1c[nH]c2ccccc12)C(=O)N[C@H](C(=O)N[C@@H](CCCN=C(N)N)C(N)=O)C(C)C)C(C)C)[C@@H](C)O)C(C)C)C(C)C [RIIDLLWRVWRPQKPKFVTVWVR]
MIC [20]: 10 µM (≈ 29.9 µg/mL) | MIC [21]: 10 µM (≈ 29.9 µg/mL) | MIC [22]: 20 µM (≈ 59.8 µg/mL)

SMILES: CC[C@H](C)[C@H](NC(=O)[C@H](CCCN=C(N)N)NC(=O)[C@H](CCCN=C(N)N)NC(=O)[C@@H]1CCCN1C(=O)[C@@H]1CCCN1C(=O)[C@H](CCCCN)NC(=O)[C@@H]1CCCN1C(=O)[C@H](CCCN=C(N)N)NC(=O)[C@@H]1CCCN1C(=O)[C@H](CC(C)C)NC(=O)[C@H](Cc1ccc(O)cc1)NC(=O)[C@@H]1CCCN1C(=O)[C@@H]1CCCN1C(=O)[C@H](CCCCN)NC(=O)[C@H](CC(=O)O)NC(=O)[C@@H](N)C(C)C)C(=O)N[C@@H](Cc1ccc(O)cc1)C(=O)N[C@@H](CC(N)=O)C(=O)N[C@@H](CC(N)=O)C(=O)N[C@@H](CCCN=C(N)N)C(=O)O [VDKPPYLPRPKPPRRIYNNR]
MIC [2]: 6.46 µM (≈ 16 µg/mL) | MIC [3]: 6.46 µM (≈ 16 µg/mL)

Other lines, results leading:

MIC [1]: 12.5 µM (≈ 16.9 µg/mL)
SMILES: CC[C@H](C)[C@H](NC(=O)[C@H](Cc1c[nH]c2ccccc12)NC(=O)[C@H](CCCN=C(N)N)NC(=O)[C@H](CCCN=C(N)N)NC(=O)[C@H](Cc1c[nH]c2ccccc12)NC(=O)[C@@H](N)CCCCN)C(=O)N[C@@H](CC(C)C)C(=O)N[C@@H](Cc1c[nH]c2ccccc12)C(=O)N[C@@H](CC(C)C)C(N)=O [KWRRWILWL]

MIC [4]: 91.1 µM (≈ 128 µg/mL) | MIC [5]: > 365 µM | MIC [6]: > 365 µM | MIC [7]: ≥ 91.1 µM | MIC [8]: 365 µM (≈ 512 µg/mL)
SMILES: CC[C@H](C)[C@H](NC(=O)[C@H](CCCCN)NC(=O)[C@H](CCCCN)NC(=O)[C@@H](NC(=O)[C@@H](NC(=O)[C@H](CC(=O)O)NC(=O)[C@H](Cc1ccccc1)NC(=O)[C@H](CC(C)C)NC(=O)CN)[C@@H](C)CC)[C@@H](C)CC)C(=O)N[C@@H](C)C(=O)N[C@@H](CCC(=O)O)C(=O)N[C@@H](CO)C(=O)N[C@@H](C)C(N)=O [GLFDIIKKIAESA]

MIC [12]: 4 µM (≈ 6.99 µg/mL) | MIC [13]: 8 µM (≈ 14 µg/mL) | MIC [14]: 8 µM (≈ 14 µg/mL) | MIC [15]: 8 µM (≈ 14 µg/mL) | MIC [5]: 2 µM (≈ 3.49 µg/mL) | MIC [16]: 8 µM (≈ 14 µg/mL) | MIC [17]: 8 µM (≈ 14 µg/mL) | MIC [18]: 4 µM (≈ 6.99 µg/mL)
SMILES: CC(C)C[C@H](NC(=O)[C@H](CCCN=C(N)N)NC(=O)CNC(=O)CNC(=O)[C@@H](N)CCCN=C(N)N)C(=O)N[C@@H](Cc1ccc(O)cc1)C(=O)N[C@@H](CCCN=C(N)N)C(=O)N[C@@H](CCCN=C(N)N)C(=O)N[C@@H](CCCN=C(N)N)C(=O)N[C@@H](Cc1ccccc1)C(=O)N[C@H](C(=O)N[C@H](C(=O)NCC(=O)N[C@@H](CCCN=C(N)N)C(N)=O)C(C)C)C(C)C [RGGRLYRRRFVVGR]

MIC [13]: 8 µM and > 4 µM and 10 µM | MIC [14]: 4 µM and 8 µM | MIC [15]: 4 µM and 8 µM | MIC [19]: 8 µM (≈ 13 µg/mL) | MIC [16]: 10 µM and 4 µM and 8 µM | MIC [17]: 8 µM and > 4 µM and 10 µM | MIC [18]: 4 µM and 8 µM
SMILES: CC[C@H](C)[C@H](NC(=O)[C@H](CC(C)C)NC(=O)[C@H](Cc1c[nH]c2ccccc12)NC(=O)[C@@H](NC(=O)[C@H](CC(C)C)NC(=O)[C@H](CCCN=C(N)N)NC(=O)[C@@H](N)CCCN=C(N)N)[C@@H](C)CC)C(=O)N[C@@H](CC(C)C)C(=O)N[C@@H](CCCN=C(N)N)C(=O)N[C@@H](CC(C)C)C(=O)N[C@@H](CC(C)C)C(=O)N[C@@H](CCCN=C(N)N)C(N)=O [RRLIWLILRLLR]

MIC [1]: 25 µM (≈ 32.1 µg/mL)
SMILES: CC[C@H](C)[C@H](NC(=O)[C@H](Cc1c[nH]c2ccccc12)NC(=O)[C@H](CCCN=C(N)N)NC(=O)[C@H](CCCN=C(N)N)NC(=O)[C@H](Cc1c[nH]c2ccccc12)NC(=O)[C@@H](N)CCCCN)C(=O)N[C@@H](CCCN=C(N)N)C(=O)N[C@@H](C)C(=O)N[C@@H](CC(C)C)C(N)=O [KWRRWIRAL]

MIC [4]: 356 µM (≈ 512 µg/mL) | MIC [5]: > 356 µM | MIC [6]: > 356 µM | MIC [7]: ≥ 178 µM | MIC [8]: 178 µM (≈ 256 µg/mL)
SMILES: CC[C@H](C)[C@H](NC(=O)[C@H](CCCCN)NC(=O)[C@H](CCCCN)NC(=O)[C@H](C)NC(=O)[C@@H](NC(=O)[C@H](CC(=O)O)NC(=O)[C@H](Cc1ccccc1)NC(=O)[C@H](CC(C)C)NC(=O)CN)[C@@H](C)CC)C(=O)N[C@@H](C)C(=O)N[C@@H](CCC(=O)O)C(=O)N[C@@H](CO)C(=O)N[C@@H](Cc1ccccc1)C(N)=O [GLFDIAKKIAESF]

MIC [1]: 12.5 µM (≈ 17.3 µg/mL)
SMILES: CC[C@H](C)[C@H](NC(=O)[C@H](Cc1c[nH]c2ccccc12)NC(=O)[C@H](CCCN=C(N)N)NC(=O)[C@H](CCCN=C(N)N)NC(=O)[C@H](Cc1c[nH]c2ccccc12)NC(=O)[C@@H](N)CC(C)C)C(=O)N[C@@H](CCCN=C(N)N)C(=O)N[C@@H](Cc1c[nH]c2ccccc12)C(=O)N[C@@H](CC(C)C)C(N)=O [LWRRWIRWL]
